Assay results taken from ChEMBL document CHEMBL1201862, “PubChem BioAssay data set” (2004).
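Growth conditions: 96-well plates. Treatment: test compound, 48 hours, 5 concentrations. Analysis: linear interpolation between bracketing concentrations; unreached endpoints set to highest concentration. At the GI50, growth is halved.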 The source made the active and inactive calls. No stated cut-off is given here; in the data, active = GI50 up to about 1.1 µM and inactive = higher.

Experiments:
Assay in all cases: NCI-60 cell line screen, 48 h
HCC 2998 = tested on: HCC 2998
HOP-62 = tested on: HOP-62
HOP-92 = tested on: HOP-92
EKVX = tested on: EKVX
UACC-62 = tested on: UACC-62
SNB-19 = tested on: SNB-19
UO-31 = tested on: UO-31
TK-10 = tested on: TK-10
LXFL 529 = tested on: LXFL 529
SNB-75 = tested on: SNB-75
SK-MEL-5 = tested on: SK-MEL-5
NCI-H23 = tested on: NCI-H23
M14 = tested on: M14
UACC-257 = tested on: UACC-257
SNB-78 = tested on: SNB-78
A549 = tested on: A549
KM12 = tested on: KM12
DLD-1 = tested on: DLD-1
SF-295 = tested on: SF-295
HL-60 = tested on: HL-60
SR = tested on: SR
LOX IMVI = tested on: LOX IMVI
ACHN = tested on: ACHN
SK-MEL-2 = tested on: SK-MEL-2
SW-620 = tested on: SW-620
SN12C = tested on: SN12C
OVCAR-4 = tested on: OVCAR-4
SF-539 = tested on: SF-539
IGROV-1 = tested on: IGROV-1
SF-268 = tested on: SF-268
RPMI-8226 = tested on: RPMI-8226
U-251 = tested on: U-251
Malme-3M = tested on: Malme-3M
COLO 205 = tested on: COLO 205
OVCAR-3 = tested on: OVCAR-3
M19-MEL = tested on: M19-MEL
A498 = tested on: A498
DMS-114 = tested on: DMS-114
SK-OV-3 = tested on: SK-OV-3
NCI-H460 = tested on: NCI-H460
OVCAR-5 = tested on: OVCAR-5
DMS-273 = tested on: DMS-273
KM-20L2 = tested on: KM-20L2
NCI-H522 = tested on: NCI-H522
RXF 393 = tested on: RXF 393
SK-MEL-28 = tested on: SK-MEL-28
HCT-15 = tested on: HCT-15
HOP-18 = tested on: HOP-18
786-0 = tested on: 786-0
K562 = tested on: K562
HCT-116 = tested on: HCT-116
HT-29 = tested on: HT-29
MOLT-4 = tested on: MOLT-4
OVCAR-8 = tested on: OVCAR-8
NCI-H226 = tested on: NCI-H226
XF498 = tested on: XF498
CCRF-CEM = tested on: CCRF-CEM
CAKI-1 = tested on: CAKI-1

Structure (SMILES): Cc1nn(-c2nc3ccccc3s2)c2c1C(=O)c1ccccc1-2
- GI50 (HCC 2998): > 100 µM (inactive)
- GI50 (HOP-62): > 100 µM (inactive)
- GI50 (HOP-92): 89.3 µM (inactive)
- GI50 (EKVX): > 100 µM (inactive)
- GI50 (UACC-62): > 100 µM (inactive)
- GI50 (SNB-19): > 100 µM (inactive)
- GI50 (UO-31): > 100 µM (inactive)
- GI50 (TK-10): > 100 µM (inactive)
- GI50 (LXFL 529): 74.8 µM (inactive)
- GI50 (SNB-75): > 100 µM (inactive)
- GI50 (SK-MEL-5): > 100 µM (inactive)
- GI50 (NCI-H23): > 100 µM (inactive)
- GI50 (M14): > 100 µM (inactive)
- GI50 (UACC-257): > 100 µM (inactive)
- GI50 (SNB-78): > 100 µM (inactive)
- GI50 (A549): > 100 µM (inactive)
- GI50 (KM12): > 100 µM (inactive)
- GI50 (DLD-1): > 100 µM (inactive)
- GI50 (SF-295): > 100 µM (inactive)
- GI50 (HL-60): > 100 µM (inactive)
- GI50 (SR): > 100 µM (inactive)
- GI50 (LOX IMVI): > 100 µM (inactive)
- GI50 (ACHN): > 100 µM (inactive)
- GI50 (SK-MEL-2): > 100 µM (inactive)
- GI50 (SW-620): > 100 µM (inactive)
- GI50 (SN12C): > 100 µM (inactive)
- GI50 (OVCAR-4): 26.9 µM (inactive)
- GI50 (SF-539): > 100 µM (inactive)
- GI50 (IGROV-1): > 100 µM (inactive)
- GI50 (SF-268): > 100 µM (inactive)
- GI50 (RPMI-8226): > 100 µM (inactive)
- GI50 (U-251): 60.7 µM (inactive)
- GI50 (Malme-3M): > 100 µM (inactive)
- GI50 (COLO 205): > 100 µM (inactive)
- GI50 (OVCAR-3): > 100 µM (inactive)
- GI50 (M19-MEL): > 100 µM (inactive)
- GI50 (A498): > 100 µM (inactive)
- GI50 (DMS-114): > 100 µM (inactive)
- GI50 (SK-OV-3): > 100 µM (inactive)
- GI50 (NCI-H460): > 100 µM (inactive)
- GI50 (OVCAR-5): > 100 µM (inactive)
- GI50 (DMS-273): > 100 µM (inactive)
- GI50 (KM-20L2): > 100 µM (inactive)
- GI50 (NCI-H522): > 100 µM (inactive)
- GI50 (RXF 393): 62.5 µM (inactive)
- GI50 (SK-MEL-28): > 100 µM (inactive)
- GI50 (HCT-15): > 100 µM
- GI50 (HOP-18): > 100 µM (inactive)
- GI50 (786-0): 80.4 µM (inactive)
- GI50 (K562): > 100 µM (inactive)
- GI50 (HCT-116): > 100 µM (inactive)
- GI50 (HT-29): > 100 µM (inactive)

Structure (SMILES): C#Cc1ccccc1C(=O)OC
- GI50 (HCC 2998): > 100 µM (inactive)
- GI50 (HOP-62): > 100 µM (inactive)
- GI50 (HOP-92): > 100 µM (inactive)
- GI50 (MOLT-4): > 100 µM (inactive)
- GI50 (EKVX): > 100 µM (inactive)
- GI50 (UACC-62): > 100 µM (inactive)
- GI50 (SNB-19): > 100 µM (inactive)
- GI50 (UO-31): > 100 µM (inactive)
- GI50 (TK-10): > 100 µM (inactive)
- GI50 (OVCAR-8): > 100 µM (inactive)
- GI50 (SNB-75): 11.5 µM (inactive)
- GI50 (SK-MEL-5): > 100 µM (inactive)
- GI50 (NCI-H23): > 100 µM (inactive)
- GI50 (M14): > 100 µM (inactive)
- GI50 (UACC-257): > 100 µM (inactive)
- GI50 (NCI-H226): > 100 µM (inactive)
- GI50 (A549): > 100 µM (inactive)
- GI50 (KM12): > 100 µM (inactive)
- GI50 (DLD-1): > 100 µM (inactive)
- GI50 (SF-295): > 100 µM (inactive)
- GI50 (HL-60): > 100 µM (inactive)
- GI50 (SR): > 100 µM (inactive)
- GI50 (LOX IMVI): > 100 µM (inactive)
- GI50 (ACHN): > 100 µM (inactive)
- GI50 (SK-MEL-2): > 100 µM (inactive)
- GI50 (SW-620): > 100 µM (inactive)
- GI50 (SN12C): > 100 µM (inactive)
- GI50 (OVCAR-4): > 100 µM (inactive)
- GI50 (SF-539): > 100 µM (inactive)
- GI50 (IGROV-1): > 100 µM (inactive)
- GI50 (RPMI-8226): > 100 µM (inactive)
- GI50 (U-251): > 100 µM (inactive)
- GI50 (Malme-3M): > 100 µM (inactive)
- GI50 (COLO 205): > 100 µM (inactive)
- GI50 (OVCAR-3): > 100 µM (inactive)
- GI50 (A498): > 100 µM (inactive)
- GI50 (DMS-114): 89.9 µM (inactive)
- GI50 (SK-OV-3): > 100 µM (inactive)
- GI50 (NCI-H460): > 100 µM (inactive)
- GI50 (OVCAR-5): > 100 µM (inactive)
- GI50 (DMS-273): > 100 µM (inactive)
- GI50 (KM-20L2): > 100 µM (inactive)
- GI50 (NCI-H522): 35.9 µM (inactive)
- GI50 (RXF 393): > 100 µM (inactive)
- GI50 (XF498): > 100 µM (inactive)
- GI50 (SK-MEL-28): > 100 µM (inactive)
- GI50 (HCT-15): > 100 µM
- GI50 (HOP-18): > 100 µM (inactive)
- GI50 (K562): > 100 µM (inactive)
- GI50 (HCT-116): > 100 µM (inactive)
- GI50 (CCRF-CEM): > 100 µM (inactive)
- GI50 (HT-29): > 100 µM (inactive)

Structure (SMILES): O=C(c1ccccc1)c1nnn(Cc2cccc(Cl)c2)c1C(=O)c1ccccc1
- GI50 (HCC 2998): 44 µM (inactive)
- GI50 (HOP-62): > 100 µM (inactive)
- GI50 (HOP-92): > 100 µM (inactive)
- GI50 (MOLT-4): > 100 µM (inactive)
- GI50 (EKVX): 44.8 µM (inactive)
- GI50 (UACC-62): > 100 µM (inactive)
- GI50 (SNB-19): > 100 µM (inactive)
- GI50 (UO-31): > 100 µM (inactive)
- GI50 (TK-10): > 100 µM (inactive)
- GI50 (LXFL 529): 97.5 µM (inactive)
- GI50 (OVCAR-8): > 100 µM (inactive)
- GI50 (SNB-75): > 100 µM (inactive)
- GI50 (SK-MEL-5): 88.3 µM (inactive)
- GI50 (NCI-H23): > 100 µM (inactive)
- GI50 (M14): > 100 µM (inactive)
- GI50 (UACC-257): > 100 µM (inactive)
- GI50 (SNB-78): > 100 µM (inactive)
- GI50 (NCI-H226): > 100 µM (inactive)
- GI50 (A549): 25.2 µM (inactive)
- GI50 (KM12): > 100 µM (inactive)
- GI50 (DLD-1): > 100 µM (inactive)
- GI50 (SF-295): > 100 µM (inactive)
- GI50 (HL-60): > 100 µM (inactive)
- GI50 (SR): > 100 µM (inactive)
- GI50 (LOX IMVI): > 100 µM (inactive)
- GI50 (ACHN): > 100 µM (inactive)
- GI50 (SK-MEL-2): > 100 µM (inactive)
- GI50 (SW-620): > 100 µM (inactive)
- GI50 (OVCAR-4): > 100 µM (inactive)
- GI50 (CAKI-1): 98.2 µM (inactive)
- GI50 (IGROV-1): > 100 µM (inactive)
- GI50 (SF-268): > 100 µM (inactive)
- GI50 (RPMI-8226): > 100 µM (inactive)
- GI50 (U-251): > 100 µM (inactive)
- GI50 (Malme-3M): > 100 µM (inactive)
- GI50 (COLO 205): 15 µM (inactive)
- GI50 (OVCAR-3): > 100 µM (inactive)
- GI50 (M19-MEL): > 100 µM (inactive)
- GI50 (DMS-114): 78 µM (inactive)
- GI50 (SK-OV-3): 34.8 µM (inactive)
- GI50 (NCI-H460): 8.17 µM (inactive)
- GI50 (OVCAR-5): > 100 µM (inactive)
- GI50 (DMS-273): > 100 µM (inactive)
- GI50 (KM-20L2): > 100 µM (inactive)
- GI50 (NCI-H522): > 100 µM (inactive)
- GI50 (RXF 393): > 100 µM (inactive)
- GI50 (XF498): > 100 µM (inactive)
- GI50 (SK-MEL-28): > 100 µM (inactive)
- GI50 (HCT-15): > 100 µM
- GI50 (HOP-18): > 100 µM (inactive)
- GI50 (786-0): > 100 µM (inactive)
- GI50 (K562): > 100 µM (inactive)
- GI50 (HCT-116): > 100 µM (inactive)
- GI50 (CCRF-CEM): > 100 µM (inactive)
- GI50 (HT-29): > 100 µM (inactive)
